Drawing on US10246453B2, “Benzenesulfonamide compounds and their use as therapeutic agents” (Xenon Pharmaceuticals Inc., priority 2016, dated 2019), this text covers IC50 for 19 molecules.

Data set [1] deals with NaV1.1 (Homo sapiens (Human), UniProt P35498). In words: Sodium Influx Assay (Flux), NaV1.1. The note with it: Trex HEK293 cells, ANG2 dye; arithmetic mean. The data set is classed as cell-based.
For data set [2], the target named is T1, NaV1.6 (Homo sapiens (Human), UniProt Q9UQD0). In words: Electrophysiological Assay (EP), patch voltage clamp, NaV1.6. The note with it: HEK-293 cells, whole-cell patch clamp, inactivated state; arithmetic mean. The class given is cell-based. The text has this:
Patch voltage clamp electrophysiology allows for the direct measurement and quantification of block of voltage-gated sodium channels (Nay's), and allows the determination of the time-and voltage-dependence of block which has been interpreted as differential binding to the resting, open, and inactivated states of the sodium channel (Hille, B., Journal of General Physiology (1977), 69: 497-515).
NaV1.1, NaV1.5 and NaV1.6 cDNAs (NM_001165964 (SCN1A), NM_000335 (SCN5A) and NM_014191 (SCN8A), respectively) were stably expressed in HEK-293 cells.
Sodium currents were measured using the patch clamp technique in the whole-cell configuration using either a PatchXpress automated voltage clamp or manually using an Axopatch 200B (Axon Instruments) or Model 2400 (A-M systems) amplifier.
The manual voltage clamp protocol was as follows: Borosilicate glass micropipettes were fire-polished to a tip diameter yielding a resistance of 2-4 Mohms in the working solutions. […] In some studies, the external sodium was reduced by equimolar replacement with choline. Osmolarity in the CsF internal and NaCl external solutions was adjusted to 300 mOsm/kg and 310 mOsm/kg with glucose, respectively. All recordings were performed at ambient temperature in a bath chamber with a volume of 150 μL. Control sodium currents were measured in 0.5% DMSO. Controls and representative compounds of the invention were applied to the recording chamber through a 4-pinch or 8-pinch valve bath perfusion system manufactured by ALA Scientific Instruments.
Currents were recorded at 40 kHz sampling frequency, filtered at […], and stored using a Digidata-1322A analogue/digital interface with the pClamp software (Axon Instruments). Series resistance compensation was applied (60-80%). […] All statistics in this study are given as mean±SD.
The membrane potential was maintained at a voltage where inactivation of the channel is complete. The voltage is then stepped back to a very negative (Vhold=−150 mV) voltage for 20 ms and then a test pulse is applied to quantify the compound block. The 20 ms brief repolarization was long enough for compound-free channels to completely recover from fast inactivation, but the compound-bound channels recovered more slowly such that negligible recovery could occur during this interval. The percent decrease in sodium current following wash-on of compound was taken as the percent block of sodium channels.

The target of data set [3] is T1, NaV1.6. The data set can be described thus: Sodium Influx Assay (Flux), NaV1.6. The following applies: read-out: Flux NaV1.6 IC50; Trex HEK293 cells, ANG2 dye; arithmetic mean.
In data set [4] the target is NaV1.5 (Homo sapiens (Human), UniProt Q14524). In words: Sodium Influx Assay (Flux), NaV1.5. The note with it: read-out: Flux NaV1.5 IC50; Trex HEK293 cells, ANG2 dye; arithmetic mean.
Sequence of NaV1.5 (Q14524 other isoform, or with tags, fused parts or gaps): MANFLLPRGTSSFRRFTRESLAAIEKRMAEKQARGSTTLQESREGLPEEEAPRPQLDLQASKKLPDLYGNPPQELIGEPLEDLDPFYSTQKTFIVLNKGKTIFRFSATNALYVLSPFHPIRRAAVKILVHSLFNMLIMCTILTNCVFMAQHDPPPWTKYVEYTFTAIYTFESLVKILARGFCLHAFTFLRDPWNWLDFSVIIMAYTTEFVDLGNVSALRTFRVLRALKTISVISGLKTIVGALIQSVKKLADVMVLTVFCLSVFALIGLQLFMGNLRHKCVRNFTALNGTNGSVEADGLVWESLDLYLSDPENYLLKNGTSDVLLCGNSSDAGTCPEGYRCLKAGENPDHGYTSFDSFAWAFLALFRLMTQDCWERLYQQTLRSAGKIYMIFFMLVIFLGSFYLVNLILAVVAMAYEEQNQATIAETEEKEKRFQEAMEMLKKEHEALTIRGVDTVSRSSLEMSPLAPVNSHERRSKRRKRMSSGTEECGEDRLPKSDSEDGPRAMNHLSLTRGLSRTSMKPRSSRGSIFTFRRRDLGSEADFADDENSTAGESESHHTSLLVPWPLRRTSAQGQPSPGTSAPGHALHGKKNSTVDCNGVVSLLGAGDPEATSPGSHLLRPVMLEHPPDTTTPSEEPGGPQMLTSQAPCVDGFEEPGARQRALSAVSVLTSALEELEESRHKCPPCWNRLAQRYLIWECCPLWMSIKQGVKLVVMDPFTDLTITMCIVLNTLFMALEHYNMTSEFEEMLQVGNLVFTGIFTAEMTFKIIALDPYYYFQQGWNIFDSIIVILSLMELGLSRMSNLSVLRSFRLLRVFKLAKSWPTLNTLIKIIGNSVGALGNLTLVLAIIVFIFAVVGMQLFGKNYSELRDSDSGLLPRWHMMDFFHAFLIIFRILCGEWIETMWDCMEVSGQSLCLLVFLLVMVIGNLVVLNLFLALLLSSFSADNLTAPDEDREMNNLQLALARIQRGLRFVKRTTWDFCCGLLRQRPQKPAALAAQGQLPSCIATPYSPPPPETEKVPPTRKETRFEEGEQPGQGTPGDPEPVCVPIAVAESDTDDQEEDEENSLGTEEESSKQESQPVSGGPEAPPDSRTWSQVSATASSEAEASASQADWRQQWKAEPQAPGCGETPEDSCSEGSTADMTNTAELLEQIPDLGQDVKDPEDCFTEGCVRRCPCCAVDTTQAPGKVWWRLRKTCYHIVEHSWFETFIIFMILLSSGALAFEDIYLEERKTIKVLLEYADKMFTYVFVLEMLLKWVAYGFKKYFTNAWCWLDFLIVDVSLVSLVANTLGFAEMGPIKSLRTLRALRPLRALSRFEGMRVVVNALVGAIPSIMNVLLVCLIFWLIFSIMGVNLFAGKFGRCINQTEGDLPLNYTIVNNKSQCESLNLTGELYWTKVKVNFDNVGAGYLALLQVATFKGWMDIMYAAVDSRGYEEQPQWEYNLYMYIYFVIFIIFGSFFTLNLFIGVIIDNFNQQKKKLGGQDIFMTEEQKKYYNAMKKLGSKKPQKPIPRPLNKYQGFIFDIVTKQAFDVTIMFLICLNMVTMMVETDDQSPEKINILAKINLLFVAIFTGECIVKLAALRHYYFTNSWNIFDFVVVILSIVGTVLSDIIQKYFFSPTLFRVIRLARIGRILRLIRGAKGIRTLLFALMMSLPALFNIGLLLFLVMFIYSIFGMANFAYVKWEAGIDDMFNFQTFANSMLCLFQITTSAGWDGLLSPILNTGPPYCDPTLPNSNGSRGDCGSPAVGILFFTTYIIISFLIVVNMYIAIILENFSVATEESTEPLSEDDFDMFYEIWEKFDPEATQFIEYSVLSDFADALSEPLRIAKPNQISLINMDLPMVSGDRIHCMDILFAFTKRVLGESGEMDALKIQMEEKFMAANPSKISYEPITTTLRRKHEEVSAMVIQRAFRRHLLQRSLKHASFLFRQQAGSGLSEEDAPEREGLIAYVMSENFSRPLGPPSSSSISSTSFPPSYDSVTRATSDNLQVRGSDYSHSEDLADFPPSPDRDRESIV

Structures can show the parent of a compound that is named as a salt.

T1 sequence (Q9UQD0 whole entry): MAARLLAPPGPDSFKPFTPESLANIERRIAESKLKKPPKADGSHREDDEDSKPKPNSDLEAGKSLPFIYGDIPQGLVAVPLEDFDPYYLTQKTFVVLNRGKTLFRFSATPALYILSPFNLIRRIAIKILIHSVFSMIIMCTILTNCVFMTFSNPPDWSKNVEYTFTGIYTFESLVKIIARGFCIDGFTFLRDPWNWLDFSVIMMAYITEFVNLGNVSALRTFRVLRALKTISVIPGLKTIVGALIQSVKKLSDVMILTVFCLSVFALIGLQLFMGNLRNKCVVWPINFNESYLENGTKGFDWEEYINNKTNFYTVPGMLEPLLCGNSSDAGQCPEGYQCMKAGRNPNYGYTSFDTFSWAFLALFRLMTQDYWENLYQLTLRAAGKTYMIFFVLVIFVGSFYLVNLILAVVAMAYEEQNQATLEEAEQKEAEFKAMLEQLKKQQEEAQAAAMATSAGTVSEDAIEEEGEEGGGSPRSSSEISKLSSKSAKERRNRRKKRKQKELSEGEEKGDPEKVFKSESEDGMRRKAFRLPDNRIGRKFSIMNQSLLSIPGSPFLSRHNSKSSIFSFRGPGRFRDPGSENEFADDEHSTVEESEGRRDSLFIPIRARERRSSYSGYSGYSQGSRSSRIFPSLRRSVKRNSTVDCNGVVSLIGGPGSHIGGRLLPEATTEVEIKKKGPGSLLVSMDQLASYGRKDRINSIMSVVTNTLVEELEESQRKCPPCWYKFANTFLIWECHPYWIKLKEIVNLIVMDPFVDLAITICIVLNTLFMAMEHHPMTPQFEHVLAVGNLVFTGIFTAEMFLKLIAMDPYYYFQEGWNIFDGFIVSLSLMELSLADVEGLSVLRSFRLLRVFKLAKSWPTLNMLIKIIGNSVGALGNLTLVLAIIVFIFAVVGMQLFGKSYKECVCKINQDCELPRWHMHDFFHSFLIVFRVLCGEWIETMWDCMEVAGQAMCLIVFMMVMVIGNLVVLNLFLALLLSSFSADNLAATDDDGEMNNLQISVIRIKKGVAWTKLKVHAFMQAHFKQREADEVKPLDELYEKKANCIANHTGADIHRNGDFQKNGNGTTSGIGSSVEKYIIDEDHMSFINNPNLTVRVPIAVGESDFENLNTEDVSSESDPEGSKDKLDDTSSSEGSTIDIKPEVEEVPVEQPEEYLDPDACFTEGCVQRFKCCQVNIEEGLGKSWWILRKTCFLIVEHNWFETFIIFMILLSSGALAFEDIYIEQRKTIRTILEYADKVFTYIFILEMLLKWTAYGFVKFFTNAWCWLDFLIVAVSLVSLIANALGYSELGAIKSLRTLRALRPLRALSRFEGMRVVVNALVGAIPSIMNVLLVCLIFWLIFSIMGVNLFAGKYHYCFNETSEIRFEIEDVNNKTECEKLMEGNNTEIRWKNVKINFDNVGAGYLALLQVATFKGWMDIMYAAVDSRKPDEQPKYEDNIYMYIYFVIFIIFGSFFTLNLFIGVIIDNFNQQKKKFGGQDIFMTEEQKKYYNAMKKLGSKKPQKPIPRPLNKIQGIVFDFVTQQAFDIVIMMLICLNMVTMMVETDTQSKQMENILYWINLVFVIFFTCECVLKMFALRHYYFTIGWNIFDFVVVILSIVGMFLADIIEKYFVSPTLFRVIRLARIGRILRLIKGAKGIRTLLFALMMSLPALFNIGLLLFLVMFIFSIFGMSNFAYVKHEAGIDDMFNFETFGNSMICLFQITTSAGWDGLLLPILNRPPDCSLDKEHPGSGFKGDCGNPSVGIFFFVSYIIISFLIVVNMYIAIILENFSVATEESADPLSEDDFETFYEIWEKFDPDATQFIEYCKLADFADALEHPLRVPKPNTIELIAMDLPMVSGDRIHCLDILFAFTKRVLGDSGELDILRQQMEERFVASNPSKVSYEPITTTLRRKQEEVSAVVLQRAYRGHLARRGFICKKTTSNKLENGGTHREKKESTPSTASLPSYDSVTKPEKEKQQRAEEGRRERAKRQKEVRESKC

Consider `CC1(C)CN(Cc2ccccc2)CCC1Oc1ccc(S(=O)(=O)Nc2ncns2)cc1Cl` (centres unmarked) [Example 2, 4-((1-benzyl-3,3-dimethylpiperidin-4-yl)oxy)-3-chloro-N-(1,2,4-thiadiazol-5-yl)benzenesulfonamide 2,2,2-trifluoroacetate], for which the IC50 was 22.5 µM in data set [1], 0.381 µM in data set [2], 1.36 µM in data set [3] and 6.33 µM in data set [4].
In the case of `O=S(=O)(Nc1ncns1)c1ccc(NC2CCN(Cc3ccccc3)C2)c(Cl)c1` (centres unmarked) [Example 26, 4-((1-benzylpyrrolidin-3-yl)amino)-3-chloro-N-(1,2,4-thiadiazol-5-yl)benzenesulfonamide trifluoroacetate], the IC50 in data set [1] was 15 µM; in data set [2] it was 0.164 µM; in data set [3] it was 0.235 µM; in data set [4] it was > 30 µM.
In the same order, the values of `CN(c1ccc(S(=O)(=O)Nc2ncns2)cc1Cl)[C@H]1CCN(Cc2cccc(C(F)F)c2)C1` [Example 31, (S)-3-chloro-4-((1-(3-(difluoromethyl)benzyl)pyrrolidin-3-yl)(methyl)amino)-N-(1,2,4-thiadiazol-5-yl)benzenesulfonamide] are 27.7 µM, 0.029 µM, 0.013 µM and > 30 µM.
The like results for `O=S(=O)(Nc1ncns1)c1ccc(NC2CCN(Cc3ccccc3)CC2)c(Cl)c1` [Example 46, 4-((1-benzylpiperidin-4-yl)amino)-3-chloro-N-(1,2,4-thiadiazol-5-yl)benzenesulfonamide 2,2,2-trifluoroacetate] were, in that order, 4.13 µM, 0.278 µM, 0.731 µM and > 30 µM.
With `O=S(=O)(Nc1nccs1)c1cc(Cl)c(OC2CCN(Cc3ccccc3)CC2)cc1F` [Example 47, 4-((1-benzylpiperidin-4-yl)oxy)-5-chloro-2-fluoro-N-(thiazol-2-yl)benzenesulfonamide 2,2,2-trifluoroacetate], the concentration for half-maximal inhibition (IC50) in data set [1] stood at 12.3 µM; in data set [2], 0.479 µM; in data set [3], 0.943 µM; in data set [4], 15.9 µM.
On to `C[C@H](c1ccccc1)N1CCC(Oc2ccc(S(=O)(=O)Nc3nccs3)cc2Cl)CC1` [Example 55, (R)-3-chloro-4-((1-(1-phenylethyl)piperidin-4-yl)oxy)-N-(thiazol-2-yl)benzenesulfonamide 2,2,2-trifluoroacetate], for which the IC50 in data set [2] was found to be 0.032 µM; in data set [3], 0.187 µM.
As to `O=S(=O)(Nc1ncns1)c1ccc(N[C@@H]2CCN(Cc3ccccc3)C2)c(Cl)c1` [Example 66, (R)-4-((1-benzylpyrrolidin-3-yl)amino)-3-chloro-N-(1,2,4-thiadiazol-5-yl)benzenesulfonamide 2,2,2-trifluoroacetate], the concentration for half-maximal inhibition (IC50) in data set [1] is 5.51 µM; in data set [2] it was 0.144 µM; in data set [3], 0.148 µM; in data set [4], > 30 µM.
In the case of `O=S(=O)(Nc1ncns1)c1ccc(N[C@H]2CCN(Cc3ccccc3)C2)c(Cl)c1` [Example 67, (S)-4-((1-benzylpyrrolidin-3-yl)amino)-3-chloro-N-(1,2,4-thiadiazol-5-yl)benzenesulfonamide 2,2,2-trifluoroacetate], the 50% inhibitory concentration (IC50) in data set [1] was > 30 µM; in data set [2], 0.453 µM; in data set [3], 0.31 µM; in data set [4], > 30 µM.
For the molecule `O=S(=O)(Nc1cccc(F)n1)c1ccc(OC2CCN(Cc3ccccc3)CC2)c(Cl)c1` [Example 77, 4-((1-benzylpiperidin-4-yl)oxy)-3-chloro-N-(6-fluoropyridin-2-yl)benzenesulfonamide 2,2,2-trifluoroacetate], the IC50 in data set [1] is 19 µM; in data set [2] it was 5.57 µM; in data set [3], 7.61 µM; in data set [4] it was 26.6 µM.
Consider `O=S(=O)(Nc1nccs1)c1ccc(OC2CCN(Cc3ccccc3)CC2)c(Cl)c1` [Example 95, 4-(1-benzylpiperidin-4-yloxy)-3-chloro-N-(thiazol-2-yl)benzenesulfonamide 2,2,2-trifluoroacetate], for which the values for the concentration for half-maximal inhibition (IC50) in data set [2], in data set [3] and in data set [4] were 0.177 µM, 0.416 µM and 20.9 µM, respectively.
For `O=S(=O)(Nc1ncns1)c1ccc(O[C@H]2CCN(Cc3ccccc3)C2)c(Cl)c1` [Example 97, (S)-4-(1-benzylpyrrolidin-3-yloxy)-3-chloro-N-(1,2,4-thiadiazol-5-yl)benzenesulfonamide 2,2,2-trifluoroacetate], the IC50 in data set [1] is > 30 µM; in data set [2], 2.94 µM; in data set [3] it was 1.45 µM; in data set [4], > 30 µM.
With `Cc1cc(C)cc(CN2CC[C@H](Oc3ccc(S(=O)(=O)Nc4ncns4)cc3Cl)C2)c1` [Example 99, (S)-3-chloro-4-(1-(3,5-dimethylbenzyl)pyrrolidin-3-yloxy)-N-(1,2,4-thiadiazol-5-yl)benzenesulfonamide 2,2,2-trifluoroacetate], the IC50 in data set [1] is > 30 µM; in data set [2], 4.44 µM; in data set [3] it was 1.41 µM; in data set [4], > 30 µM.
In the case of `Cc1cc(S(=O)(=O)Nc2cscn2)c(F)cc1N(C)[C@H]1CCN(Cc2ccccc2)C1` [Example 101, (S)-4-((1-benzylpyrrolidin-3-yl)(methyl)amino)-2-fluoro-5-methyl-N-(thiazol-4-yl)benzenesulfonamide formate], the half-maximal inhibitory concentration (IC50) in data set [2] stood at 0.054 µM; in data set [3], 0.272 µM.
For the molecule `Cc1c(O[C@@]2(C)CCN(Cc3ccccc3)C2)cc(F)c(S(=O)(=O)Nc2cscn2)c1F` [Example 158, (S)-4-((1-benzyl-3-methylpyrrolidin-3-yl)oxy)-2,6-difluoro-3-methyl-N-(thiazol-4-yl)benzenesulfonamide formate], the IC50 is 24.2 µM in data set [1], 0.008 µM in data set [2], 0.009 µM in data set [3] and > 30 µM in data set [4].
Consider `Cc1cccc(CN2CC[C@H](N(C)c3cc(F)c(S(=O)(=O)Nc4cscn4)c(F)c3Cl)C2)n1` [Example 267, (S)-3-chloro-2,6-difluoro-4-(methyl(1-((6-methylpyridin-2-yl)methyl)pyrrolidin-3-yl)amino)-N-(thiazol-4-yl)benzenesulfonamide], for which the IC50 in data set [1] was > 30 µM; in data set [2], 0.066 µM; in data set [3], 0.182 µM; in data set [4] it was > 30 µM.
For `Cc1cc(S(=O)(=O)Nc2ccsn2)c(F)cc1N(C)[C@H]1CCN(Cc2ccccc2)C1` [Example 277, (S)-4-((1-benzylpyrrolidin-3-yl)(methyl)amino)-2-fluoro-N-(isothiazol-3-yl)-5-methylbenzenesulfonamide 2,2,2-trifluoroacetate], the IC50 in data set [1] is 24.9 µM; in data set [2], 0.027 µM; in data set [3], 0.153 µM; in data set [4], > 30 µM.
In the case of `Cc1c(OC2CCN([C@H](C)c3ccccc3)CC2)cc(F)c(S(=O)(=O)Nc2cscn2)c1F` [Example 282, (R)-2,6-difluoro-3-methyl-4-((1-(1-phenylethyl)piperidin-4-yl)oxy)-N-(thiazol-4-yl)benzenesulfonamide 2,2,2-trifluoroacetate], the IC50 in data set [1] is 17.3 µM; in data set [2], 0.005 µM; in data set [3] it was 0.005 µM; in data set [4], 23.9 µM.
Consider `C[C@H](c1ccccc1)N1CCC(Oc2cc(F)c(S(=O)(=O)Nc3cscn3)c(F)c2)CC1` [Example 291, (R)-2,6-difluoro-4-((1-(1-phenylethyl)piperidin-4-yl)oxy)-N-(thiazol-4-yl)benzenesulfonamide 2,2,2-trifluoroacetate], for which the IC50 in data set [1] is > 30 µM; in data set [2] it was 0.447 µM; in data set [3] it was 0.578 µM; in data set [4], > 30 µM.
Turning to `Cc1c(N(C)[C@H]2CCN(Cc3ccccc3)C2)cc(F)c(S(=O)(=O)Nc2ncns2)c1F` [Example 295, (S)-4-((1-benzylpyrrolidin-3-yl)(methyl)amino)-2,6-difluoro-3-methyl-N-(1,2,4-thiadiazol-5-yl)benzenesulfonamide], the IC50 in data set [1] came to 17.1 µM; in data set [2] it was 0.001 µM; in data set [3], 0.009 µM; in data set [4] it was 25.9 µM.
